Values after ≈ are worked out from the molar mass of the structure shown. Values joined by “and” are separate entries in the source; they are usually repeats but may differ in a detail not shown here. Equal entries are not always repeated.
Tests used:
E. coli ΔtolC pERMZα = test: MIC, broth microdilution, E. coli ΔtolC panel; type: cell-based; settings: Escherichia coli
Description: (§1) The E. coli ΔtolC strain was also transformed with the pErmC, pErmCL-ErmC, and pERMZα plasmids. The resulting strains were grown at 37 °C in LB medium supplied with 100 μg/mL ampicillin.
(§2) MIC values for a panel of E. coli ΔtolC strains were determined via the broth microdilution assay as described here with minor modifications. Briefly, the overnight E. coli culture was diluted to an OD600 of 0.01 in the fresh LB medium supplied with 100 μg/mL ampicillin, if required. Then, the cells were additionally incubated for 1–1.5 h at 37 °C with shaking at 200 rpm (Shaker-Incubator ES-20/80, BioSan, Riga, Latvia). Meanwhile, 100 μL of the liquid growth medium was placed in each well of a 96-well sterile plate (200 μL was placed in column 1). Solutions of tested compounds were added in the first column of the plate at 2 times the final concentration of 200 μg/mL. Then, 2-fold serial dilutions were performed. Immediately before use, bacterial inoculum was diluted (1:100) in the growth medium, and 100 μL of it was transferred in each well except for the sterility control column. The plate was incubated overnight (16–20 h) at 37 °C with constant shaking at 200 rpm (Shaker-Incubator ES-20/80, BioSan, Riga Latvia). Cell growth was assessed by scanning the OD600 with a VICTOR X5 Multilabel Plate Reader (PerkinElmer, Waltham, MA, USA).
(§3) Minimum inhibitory concentration (MIC) was defined as the lowest concentration of a chemical compound that inhibits the visible growth of the bacterial strain. At least three replicates of MIC measurements were performed.

E. coli ΔtolC pErmC = test: MIC, broth microdilution, E. coli ΔtolC panel; type: cell-based; settings: Escherichia coli
Description: as §1, §2, §3

[1] = test system: E. coli ΔtolC pErmCL-ErmC; test: MIC, broth microdilution, E. coli ΔtolC panel; type: cell-based; settings: for MIC: Escherichia coli
Description: In order to create the construct pErmCL-ErmC, the vector backbone was amplified using pZa-fwd (5′-TAAGAATTCTCTAGCCCG-3′) and pZa-rev (5′-[…]-3′) primers, and the pERMZα plasmid as a template. The ermC gene was amplified from the pERMCTP plasmid with ErmC-fwd (5′-[…]-3′) and ErmC-rev (5′-TAGGCGGGCTAGAGAATTC-3′) primers. The joining of two DNA fragments was performed using the NEBuilder® HiFi DNA Assembly Master Mix (New England Biolabs, Ipswich, MA, USA). Sequences of intermediate products and the final construct were confirmed by Sanger sequencing with appropriate primers.
as §1, §2, §3

E. coli ΔtolC = test: MIC, broth microdilution, E. coli ΔtolC panel; type: cell-based; settings: for MIC: Escherichia coli
Text: The E. coli JW5503 strain with a deletion of the tolC gene (referred to here as E. coli ΔtolC) was kindly provided by Prof. Hironori Niki, National Institute of Genetics, Japan. The E. coli BW25113 strain with a partial deletion of the lptD gene, codons 330 to 352 (referred to here as E. coli lptD^mut) was kindly provided by Prof. Alexander S. Mankin, University of Illinois, Chicago, IL, USA [44]. The E. coli ΔtolC strain was transformed with the pDualrep2 (Amp^R) plasmid, whereas the E. coli lptD^mut strain was transformed with the pDualrep2 (Kan^R) plasmid (not yet published). Both E. coli strains were grown at 37 °C in Luria–Bertani (LB) medium supplemented with either 100 μg/mL ampicillin or 50 μg/mL kanamycin.
as §2, §3

[2] = test system: cell-free bacterial translation system based on the E. coli S30 lysate; test: In vitro translation in a cell-free bacterial system (firefly luciferase synthesis); type: biochemical; settings: for Relative luciferase activity (relative maximal rate of Fluc accumulation): final concentration 5 μM, water control = 100%
Description: The inhibition of firefly luciferase (Fluc) synthesis by new azithromycin derivatives was assessed with the E. coli S30 Extract System for Linear Templates (Promega, Madison, WI, USA). Each reaction (5 μL total volume) was supplied with 0.1 mM mixture of all canonical amino acids, 4 U of RiboLock RNase Inhibitor (Thermo Fisher Scientific, Waltham, MA, USA), 0.1 mM of D-luciferin (Sigma-Aldrich, Burlington, MA, USA), 50 ng of firefly luciferase (Fluc) mRNA, and a chemical compound at a final concentration, as indicated in the main text, or nuclease-free water instead. Before the addition of mRNA, reaction tubes were pre-incubated at RT for 5 min and then placed back on ice. After the addition of mRNA, reaction mixtures were immediately subjected to continuous chemiluminescence measurement using the VICTOR X5 Multilabel Plate Reader (PerkinElmer, Waltham, MA, USA) at 37 °C for 30 min. Maximal rates of the firefly luciferase (Fluc) accumulation were calculated using the OriginPro 7.5 software. The values were normalized to a positive control (nuclease-free water, assigned a value of 100%). The results were visualized using the QtiPlot software (version 0.9.8.9).

[3] = test system: Staphylococcus aureus ATCC 29213; test: MIC, broth microdilution (CLSI); type: cell-based; settings: ATCC29213, S. aureus ATCC 29213
Description: (§4) Minimum inhibitory concentration (MIC) values for facultative anaerobic bacteria were determined using the broth microdilution method outlined in the CLSI guidelines. Initially, all compounds were dissolved in dimethyl sulfoxide (DMSO) to achieve a concentration of 10 mg/mL. Subsequently, they were diluted with the Mueller–Hinton nutrient broth (MHB) supplemented with 5% defibrinated horse blood (for Streptococcus spp.) to a concentration of 64 μg/mL. Following 2-fold serial dilutions of the substances, bacterial cultures in the log growth phase were added to 96-well plates at a concentration of 2.5–5 × 10^5 CFU/mL, and the plates were incubated at 37 °C for 16–20 h.
as §3

[4] = test system: Streptococcus agalactiae 1Cp; test: MIC, broth microdilution (CLSI); type: cell-based; settings: S. agalactiae 1Cp, Table 3
Description: as §4, §3

[5] = test system: Streptococcus pneumoniae ATCC 49619; test: MIC, broth microdilution (CLSI); type: cell-based; settings: ATCC49619, S. pneumoniae ATCC 49619, Tables 2 and 3
Description: as §4, §3

[6] = test system: Clostridium sporogenes ATCC 19404; test: MIC, agar dilution, anaerobic bacteria (CLSI M11-A9); type: cell-based; settings: ATCC19404, C. sporogenes ATCC 19404, anaerobic
Description: The antimicrobial activity against anaerobic bacteria was evaluated using the agar dilution method in accordance with the CLSI document M11-A9 [58]. Twofold serial dilutions of compounds, at 10 times the desired concentration, were prepared in water and diluted (1:10) with the Brucella Agar medium containing 5% defibrinated horse blood, 5 mg/L hemin, and 1 mg/L vitamin K. The resulting plates were inoculated with approximately 10^5 CFU per spot using a replicator and incubated anaerobically at 36 °C for 48 h.
as §3

[7] = test system: Propionibacterium acnes 55; test: as above; type: cell-based; settings: Cutibacterium acnes; P. acnes 55, anaerobic clinical isolate
[8] = test system: Escherichia coli ATCC 25922; test: MIC, broth microdilution (CLSI); type: cell-based; settings: ATCC25922, E. coli ATCC 25922
Description: as §4, §3

70S E. coli ribosomes = test: Competition-binding assay with BODIPY-ERY (fluorescence anisotropy); settings: displacement of BODIPY-ERY; means, 95% confidence intervals; read-out: Apparent dissociation constant KD
Description: Affinity of compounds to the 70S E. coli ribosomes (isolated from the E. coli MRE600 strain according to a published procedure) was evaluated with a competition-binding assay using fluorescently labeled erythromycin (BODIPY-ERY) as described earlier. Briefly, BODIPY-ERY (16 nM) was mixed with ribosomes (34 nM) in 384-well plates in the buffer containing 20 mM HEPES-KOH (pH 7.5), 50 mM NH4Cl, 10 mM Mg(CH3CO2)2, 4 mM β-mercaptoethanol, and 0.05% (v/v) Tween-20. Solutions of the tested compounds were added to the obtained complexes to final concentrations from 1 to 1000 nM and incubated for 2 h at 30 °C. The values of fluorescence anisotropy were obtained using the VICTOR X5 Multilabel Plate Reader (PerkinElmer, Waltham, MA, USA). Filters of 485 and 535 nm were used for excitation and emission, respectively. To calculate the apparent dissociation constants, the assumption that the competitive equilibrium binding of two ligands occurs at a single binding site was used. For each compound, at least 2 replicates were performed. Values of apparent dissociation constants are given as means with 95% confidence intervals. The results were visualized using the GraphPad Prism software (version 8.0.1).

[9] = test system: ribosome stalling on ermCL mRNA; test: Toe-printing (primer extension inhibition) analysis on ermCL mRNA; type: biochemical; settings: 50 μM (chloramphenicol 30 μM)
Description: The toe-printing (primer extension inhibition) analysis of azithromycin derivatives was carried out essentially as previously described with some minor modifications, as indicated below. The DNA template ErmCL was generated by PCR using two overlapping primers, ErmCL-fwd (5′-[…]-3′) and ErmCL-rev (5′-[…]-3′). Before the addition of the DNA template to reaction mixtures at the in vitro translation step, tubes were pre-incubated at RT for 5 min. Moreover, phenol-chloroform extraction of reverse transcription products was replaced with DNA purification using the QIAquick® PCR Purification Kit (Qiagen, Hilden, Germany) according to the manufacturer’s protocol.
Figure 4 Toe-printing (or primer extension inhibition) analysis of azithromycin derivatives on ermCL mRNA. Ribosome stalling is detected via reverse transcription in a cell-free bacterial transcription–translation coupled system. The toe-printing bands are marked with colored arrowheads, and the A-site codons (except for the start codon, P-site codon is indicated) occupied by the stalled ribosomes are indicated in the mRNA sequence with the corresponding colors. The stop codon is marked with an asterisk. All compounds but chloramphenicol (CLM) were tested at 50 μM. Chloramphenicol (CLM) was tested at 30 μM. DMSO was used as a negative control at 0.25% final concentration. Thiostrepton (THS) was used to indicate the translation start site.

SMILES	MIC (E. coli ΔtolC pERMZα) [µg/mL]	MIC (E. coli ΔtolC pErmC) [µg/mL]	Fold increase in the MIC value on E. coli ΔtolC pErmCL-ErmC compared to E. coli ΔtolC [1] [fold]	MIC [1] [µg/mL]	MIC (E. coli ΔtolC) [µg/mL]	Relative luciferase activity (relative maximal rate of Fluc accumulation) [2] [%]	MIC [3] [µg/mL]	MIC [4] [µg/mL]	MIC [5] [µg/mL]	MIC [6] [µg/mL]	MIC [7] [µg/mL]	Inhibition of protein synthesis in vitro ([2]; concentration of 50 μM (Figure 2B))	MIC [8] [µg/mL]	Times weaker than the parental antibiotic (azithromycin), MIC (E. coli ΔtolC; toward E. coli strains (Table 4))	Kd (70S E. coli ribosomes)	Ribosome stalling pattern on ermCL mRNA [9]
CC[C@H]1OC(=O)[C@H](C)[C@@H](O[C@H]2C[C@@](C)(OC)[C@@H](O)[C@H](C)O2)[C@H](C)[C@@H](O[C@@H]2O[C@H](C)C[C@H](N(C)C)[C@H]2O)[C@](C)(O)C[C@@H](C)C(=O)[C@H](C)[C@@H](O)[C@]1(C)O [ERY, erythromycin]	1.6 (≈ 2.18 µM)	> 200	16	50 (≈ 68.1 µM)	3.1 (≈ 4.22 µM)	0.9										
Cc1ncc([N+](=O)[O-])n1CCO [MNZ, Metronidazole]	> 200	> 200		> 200	> 200		> 32	> 32	> 32	8 (≈ 46.7 µM)	> 32	no inhibition was observed				
CC[C@H]1OC(=O)[C@H](C)[C@@H](O[C@H]2C[C@@](C)(OC)[C@@H](OC(=O)NCCN)[C@H](C)O2)[C@H](C)[C@@H](O[C@@H]2O[C@H](C)C[C@H](N(C)C)[C@H]2OC(C)=O)[C@](C)(O)C[C@@H](C)CN(C)[C@H](C)[C@H]2OC(=O)O[C@@]21C [compound 6, 2′-O-Acetyl-4′′-O-((2-aminoethyl)carbamoyl)-11,12-cyclic carbonate of azithromycin]	3.1 (≈ 3.43 µM)	> 200		6.3 (≈ 6.98 µM)	3.1 (≈ 3.43 µM)	46	32 (≈ 35.4 µM)		> 32				> 32	2–4 times	6.5 nM and 6 nM	premature ribosome stalling at the first Phe codon (UUU)

From PMC10892836, “Hybrid Molecules of Azithromycin with Chloramphenicol and Metronidazole: Synthesis and Study of Antibacterial Properties” (Pharmaceuticals, 2024)
